# Values quoted from earlier work as cited in US20240360061A1, “Synthetic Cannabinoid Compounds, Pharmaceutical Compositions, and Treatment Methods” (Miralogx LLC, priority 2022, published 2024).
# Legend:
# [1] = 2.5 to 5 mg THC, three patients
# [2] = oral THC 15 mg; compared with salbutamol, isoprenaline
# [3] = several clinical studies
# [4] = Type-2 diabetes; cited from J. Cannabis Research (2020) 2:6
Structure (SMILES),effect on pruritus due to liver diseases [1],anti-asthmatic (bronchodilator) effect [2],mood in reactive depression [3],Homeostasis Model Assessment (HOMA2) of pancreatic β-cell function [4],fasting plasma glucose [4]
"CCCCCc1cc(O)c2c(c1)OC(C)(C)[C@@H]1CCC(C)=C[C@@H]21 [THC, tetrahydrocannabinol]",effective,approximately correspond to those obtained with therapeutic doses of common bronchodilator drugs,improvement of mood,–,–
"CCCc1cc(O)c2c(c1)OC(C)(C)[C@@H]1CCC(C)=C[C@@H]21 [THCV, Δ9-Tetrahydrocannabivarin]",–,–,–,improve,significantly decrease
